Read-outs that look alike come from different tables or passages of the source.
Test system: LMP1 expression in Kem I cells
Test: microbe, parasite or virus in culture
Format: cell-based, EBV
Conditions: for fold induction at 2.5 µM: human gammaherpesvirus 4, 48 h
[1] = Kem I cells, dose 2.5 uM, 48 hours, LMP1 transcript by in-well qRT-PCR, average of the two replicates
[2] = Kem I cells, dose 2.5 uM, 48 hours, LMP1 transcript by in-well qRT-PCR, screen replicate 1
[3] = Kem I cells, dose 2.5 uM, 48 hours, LMP1 transcript by in-well qRT-PCR, screen replicate 2
[4] = read-out: Average LMP1 Fold Increase, Kem I cells, 2.5 uM, 48 hours, average of replicates 1 and 2
[5] = read-out: Replicate 1-LMP1 Fold Increase, Kem I cells, 2.5 uM, 48 hours, fold change in LMP1 transcript vs vehicle
[6] = read-out: Replicate 2-LMP1 Fold Increase, Kem I cells, 2.5 uM, 48 hours, fold change in LMP1 transcript vs vehicle
[7] = Kem I cells, 2.5 uM, 48 hours, average of replicates 1 and 2
[8] = Kem I cells, 2.5 uM, 48 hours, fold change in LMP1 transcript vs vehicle
[9] = read-out: Average LMP1 Fold Increase, Kem I cells, dose 2.5 uM, 48 hours, LMP1 transcript by in-well qRT-PCR, average of the two replicates
[10] = read-out: Replicate 1-LMP1 Fold Increase, Kem I cells, dose 2.5 uM, 48 hours, LMP1 transcript by in-well qRT-PCR, screen replicate 1
[11] = read-out: Replicate 2-LMP1 Fold Increase, Kem I cells, dose 2.5 uM, 48 hours, LMP1 transcript by in-well qRT-PCR, screen replicate 2

SMILES: COc1ccc2cc(-c3nc(-c4ccc([S+](C)[O-])cc4)[nH]c3-c3ccncc3)ccc2c1 (stereo not drawn) [Tie2 kinase inhibitor]
- Average LMP1 Fold Increase [1]: 1.08 fold
- Replicate 1-LMP1 Fold Increase [2]: 0.36 fold
- Replicate 2-LMP1 Fold Increase [3]: 1.81 fold

SMILES: Cc1cc2c(cc1CC(=O)c1sccc1S(=O)(=O)Nc1onc(C)c1Cl)OCO2 [Sitaxentan sodium]
- fold induction at 2.5 µM [4]: 0.25
- fold induction at 2.5 µM [5]: 0.16
- fold induction at 2.5 µM [6]: 0.34

SMILES: CC(C)c1ccc(NC(=O)Cn2cnc3c2c(=O)n(C)c(=O)n3C)cc1 [HC-030031]
- Average LMP1 Fold Increase [7]: 0.28
- Replicate 1-LMP1 Fold Increase [8]: 0.32
- Replicate 2-LMP1 Fold Increase [8]: 0.24

SMILES: CC(C)c1noc(N2CCC(COc3ccc(-c4ccc(S(C)(=O)=O)cc4)nc3)CC2)n1 [GSK1292263]
- Average LMP1 Fold Increase [7]: 0.27
- Replicate 1-LMP1 Fold Increase [8]: 0.20
- Replicate 2-LMP1 Fold Increase [8]: 0.34

SMILES: Cn1c(=O)cc(N2CCC[C@@H](N)C2)n(Cc2cc(F)ccc2C#N)c1=O [Trelagliptin]
- fold induction at 2.5 µM [9]: 0.63
- fold induction at 2.5 µM [10]: 0.96
- fold induction at 2.5 µM [11]: 0.31

SMILES: Cl.N[C@@H]1C[C@H]1c1ccccc1 (racemic) [Tranylcypromine (2-PCPA) HCl]
- Average LMP1 Fold Increase: 0.33 fold
- Replicate 1-LMP1 Fold Increase: 0.22 fold
- Replicate 2-LMP1 Fold Increase: 0.45 fold

SMILES: COc1ccc(C[C@@H](C)NC[C@H](O)c2ccc(O)c(NC=O)c2)cc1.COc1ccc(C[C@@H](C)NC[C@H](O)c2ccc(O)c(NC=O)c2)cc1.O=C(O)/C=C/C(=O)O [Formoterol Hemifumarate]
- Average LMP1 Fold Increase [7]: 1.83
- Replicate 1-LMP1 Fold Increase [8]: 1.71
- Replicate 2-LMP1 Fold Increase [8]: 1.96

SMILES: O=C(Nc1cccc(Nc2ncc(Br)c(NCCc3cnc[nH]3)n2)c1)N1CCCC1 [BX-912]
- Average LMP1 Fold Increase [7]: 0.37
- Replicate 1-LMP1 Fold Increase [8]: 0.40
- Replicate 2-LMP1 Fold Increase [8]: 0.35

SMILES: C[C@@H](c1ncncc1F)[C@](O)(Cn1cncn1)c1ccc(F)cc1F [Voriconazole]
- fold induction at 2.5 µM [9]: 1.48
- fold induction at 2.5 µM [10]: 1.02
- fold induction at 2.5 µM [11]: 1.94

SMILES: Cc1[nH]c2ccccc2c1CCNC(=O)c1cccs1 [CK-636]
- Average LMP1 Fold Increase [7]: 1.27
- Replicate 1-LMP1 Fold Increase [8]: 0.69
- Replicate 2-LMP1 Fold Increase [8]: 1.84

SMILES: Cc1cc(-c2ccc(CC(=O)Nc3ccc(-c4cccnc4)cc3)cc2)ccn1 [Wnt-C59 (C59)]
- Average LMP1 Fold Increase [1]: 0.98 fold
- Replicate 1-LMP1 Fold Increase [2]: 0.60 fold
- Replicate 2-LMP1 Fold Increase [3]: 1.35 fold

SMILES: CCCSc1nc(N[C@@H]2C[C@H]2c2ccc(F)c(F)c2)c2nnn([C@@H]3C[C@H](OCCO)[C@@H](O)[C@H]3O)c2n1 [Ticagrelor]
- fold induction at 2.5 µM [9]: 0.66
- fold induction at 2.5 µM [10]: 0.61
- fold induction at 2.5 µM [11]: 0.7

SMILES: C[C@@H]1COCCN1c1cc(C2(S(C)(=O)=O)CC2)nc(-c2cccc3[nH]ccc23)n1 [AZ20]
- Average LMP1 Fold Increase [7]: 1.39
- Replicate 1-LMP1 Fold Increase [8]: 1.56
- Replicate 2-LMP1 Fold Increase [8]: 1.22

SMILES: Cc1cc(OCc2nnc(SC3CCCC3)n2-c2cccnc2)ccc1-c1ccc(S(C)(=O)=O)cc1 [NMS-873]
- fold induction at 2.5 µM [4]: 1
- fold induction at 2.5 µM [5]: 1.05
- fold induction at 2.5 µM [6]: 0.95

SMILES: CS(=O)(=O)c1ccc(-c2cnc(N)c(C(=O)Nc3ccccc3)n2)cc1 [VE-821]
- fold induction at 2.5 µM [9]: 0.17
- fold induction at 2.5 µM [10]: 0.2
- fold induction at 2.5 µM [11]: 0.14

SMILES: CC(C)CCN1c2nc(Nc3cc(F)c(O)c(F)c3)ncc2N(C)C(=O)C1C (stereo not drawn) [BI-D1870]
- Average LMP1 Fold Increase [7]: 0.50
- Replicate 1-LMP1 Fold Increase [8]: 0.47
- Replicate 2-LMP1 Fold Increase [8]: 0.52

SMILES: CCCS(=O)(=O)Nc1ccc(F)c(C(=O)c2c[nH]c3ncc(-c4ccc(Cl)cc4)cc23)c1F [Vemurafenib (PLX4032, RG7204)]
- Average LMP1 Fold Increase [1]: 0.41 fold
- Replicate 1-LMP1 Fold Increase [2]: 0.33 fold
- Replicate 2-LMP1 Fold Increase [3]: 0.50 fold

SMILES: C[C@@H](O[C@H]1OCCN(Cc2n[nH]c(=O)[nH]2)[C@H]1c1ccc(F)cc1)c1cc(C(F)(F)F)cc(C(F)(F)F)c1 [Aprepitant]
- fold induction at 2.5 µM [4]: 0.99
- fold induction at 2.5 µM [5]: 1.58
- fold induction at 2.5 µM [6]: 0.41

SMILES: CCOC(=O)c1ccc(NC2CCCCC2)c(N)c1 [Ferrostatin-1 (Fer-1)]
- Average LMP1 Fold Increase [7]: 0.22
- Replicate 1-LMP1 Fold Increase [8]: 0.24
- Replicate 2-LMP1 Fold Increase [8]: 0.19

SMILES: C[C@@H]1CN(CC(=O)Nc2ccc3c(c2)Cc2cccc(-c4cc(=O)cc(N5CCOCC5)o4)c2S3)C[C@H](C)O1 [KU-60019]
- fold induction at 2.5 µM [4]: 0.51
- fold induction at 2.5 µM [5]: 0.49
- fold induction at 2.5 µM [6]: 0.53

Reference: patent US20230053688A1, “METHODS TO ALTER LATENCY IN EBV+ MALIGNANCIES” (Cornell University, priority 2020, published 2023)
